Laboratory results taken from the supplement of paper PMC11451515.

How the values were obtained:
Details in all cases: 48 h
SEM cells [1] = assay: AUC of viability dose-response curve (% viability x log10 dose units); higher = less sensitive
In short: (§1)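 Area under the curve was integrated by trapezoidal rule from a log-logistic fit of normalised viability, with curves exceeding full viability scaled and quality-control failures removed. The fit had four parameters over log10 doses. Viability came from CellTiter-Glo One luminescence, normalised per plate to DMSO and cell-free wells, after leukemia cells adapted to each medium (500 or 1000 cells/well, 1536-well plates) were exposed to library compounds in DMSO for 48 h at 37°C. The 11 threefold doses ran from 47 μM to 0.79 nM.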

P12-Ichikawa [2] = assay: as above
In short: as §1

NOMO1 [3] = assay: as above
In short: as §1

SEM cells [4] = assay: cell viability relative to DMSO control; higher = less cytotoxic
In short: (§2)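 Leukemia cells (NOMO1 or SEM, 500 cells/well; P12-Ichikawa, 1000 cells/well) were seeded in 5 μl in 1536-well plates after at least four passages of adaptation to each medium. They received library compounds in DMSO by pin dosing, 11 threefold points from 47 μM to 0.79 nM. Luminescence with CellTiter-Glo One was read after 48 h at 37°C. Viability is stated per plate relative to DMSO wells, with cell-free wells as background.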

P12-Ichikawa [5] = assay: as above
In short: as §2

NOMO1 [6] = assay: as above
In short: as §2

C[C@@H]1COCCN1c1cc(C2([S@+](C)(=N)[O-])CC2)nc(-c2ccnc3[nH]ccc23)n1
AUC of viability dose-response curve
Details | NOMO1 [3] | P12-Ichikawa [2] | SEM cells [1]
HPLM + 10% dialyzed FBS | 358 | 380 | 333
RPMI 5 mM glucose + 10% FBS | 390 | 381 | 335
RPMI 5 mM glucose + 10% dialyzed FBS | 382 | 368 | 336

cell viability [%]
Details | NOMO1 [6] | P12-Ichikawa [5] | SEM cells [4]
HPLM + 10% dialyzed FBS, 0.000781 µM | 94.9 | 99.7 | 90.4
HPLM + 10% dialyzed FBS, 0.00234 µM | 116 | 103 | 100
HPLM + 10% dialyzed FBS, 0.00702 µM | 119 | 106 | 98.5
HPLM + 10% dialyzed FBS, 0.0211 µM | 121 | 110 | 77.8
HPLM + 10% dialyzed FBS, 0.0632 µM | 127 | 110 | 102
HPLM + 10% dialyzed FBS, 0.19 µM | 120 | 109 | 93.4
HPLM + 10% dialyzed FBS, 0.569 µM | 91.9 | 99.8 | 95.3
HPLM + 10% dialyzed FBS, 1.71 µM | 67.7 | 92.3 | 40.6
HPLM + 10% dialyzed FBS, 5.12 µM | 34.5 | 47.5 | 21.5
HPLM + 10% dialyzed FBS, 15.4 µM | 27.6 | 15.7 | 21.5
HPLM + 10% dialyzed FBS, 46.1 µM | 24.6 | 7.87 | 14
RPMI 5 mM glucose + 10% FBS, 0.000781 µM | 102 | 104 | –
RPMI 5 mM glucose + 10% FBS, 0.00234 µM | 114 | 105 | –
RPMI 5 mM glucose + 10% FBS, 0.00702 µM | 114 | 118 | –
RPMI 5 mM glucose + 10% FBS, 0.0211 µM | 119 | 114 | –
RPMI 5 mM glucose + 10% FBS, 0.0632 µM | 115 | 109 | –
RPMI 5 mM glucose + 10% FBS, 0.19 µM | 130 | 114 | –
RPMI 5 mM glucose + 10% FBS, 0.569 µM | 114 | 104 | –
RPMI 5 mM glucose + 10% FBS, 1.71 µM | 103 | 90.7 | –
RPMI 5 mM glucose + 10% FBS, 5.12 µM | 59.4 | 55 | –
RPMI 5 mM glucose + 10% FBS, 15.4 µM | 24.5 | 19.7 | –
RPMI 5 mM glucose + 10% FBS, 46.1 µM | 17.9 | 7.94 | –
RPMI 5 mM glucose + 10% dialyzed FBS, 0.000781 µM | 97.6 | 99.4 | 81.8
RPMI 5 mM glucose + 10% dialyzed FBS, 0.00234 µM | 107 | 110 | 96
RPMI 5 mM glucose + 10% dialyzed FBS, 0.00702 µM | 114 | 117 | 114
RPMI 5 mM glucose + 10% dialyzed FBS, 0.0211 µM | 119 | 113 | 74.4
RPMI 5 mM glucose + 10% dialyzed FBS, 0.0632 µM | 122 | 123 | 130
RPMI 5 mM glucose + 10% dialyzed FBS, 0.19 µM | 120 | 128 | 102
RPMI 5 mM glucose + 10% dialyzed FBS, 0.569 µM | 116 | 109 | 66.3
RPMI 5 mM glucose + 10% dialyzed FBS, 1.71 µM | 98.2 | 84.7 | 42.4
RPMI 5 mM glucose + 10% dialyzed FBS, 5.12 µM | 39 | 40.8 | 24.8
RPMI 5 mM glucose + 10% dialyzed FBS, 15.4 µM | 22 | 16.5 | 20.6
RPMI 5 mM glucose + 10% dialyzed FBS, 46.1 µM | 22.3 | 8.66 | 10.7

c1ccc2[nH]c(-c3cscn3)nc2c1
AUC of viability dose-response curve
Details | NOMO1 [3] | P12-Ichikawa [2] | SEM cells [1]
HPLM + 10% dialyzed FBS | 452 | 446 | 439
RPMI 5 mM glucose + 10% FBS | 474 | 470 | 419
RPMI 5 mM glucose + 10% dialyzed FBS | 474 | 461 | 445

cell viability [%]
Details | NOMO1 [6] | P12-Ichikawa [5] | SEM cells [4]
HPLM + 10% dialyzed FBS, 0.000781 µM | 122 | 115 | 93.6
HPLM + 10% dialyzed FBS, 0.00234 µM | 113 | 124 | 120
HPLM + 10% dialyzed FBS, 0.00702 µM | 136 | 124 | 111
HPLM + 10% dialyzed FBS, 0.0211 µM | 121 | 128 | 107
HPLM + 10% dialyzed FBS, 0.0632 µM | 133 | 122 | 115
HPLM + 10% dialyzed FBS, 0.19 µM | 135 | 128 | 105
HPLM + 10% dialyzed FBS, 0.569 µM | 122 | 122 | 109
HPLM + 10% dialyzed FBS, 1.71 µM | 133 | 122 | 69
HPLM + 10% dialyzed FBS, 5.12 µM | 107 | 108 | 111
HPLM + 10% dialyzed FBS, 15.4 µM | 102 | 86 | 42.7
HPLM + 10% dialyzed FBS, 46.1 µM | 90.8 | 74.6 | 116
RPMI 5 mM glucose + 10% FBS, 0.000781 µM | – | 113 | 98.5
RPMI 5 mM glucose + 10% FBS, 0.00234 µM | – | 118 | 132
RPMI 5 mM glucose + 10% FBS, 0.00702 µM | – | 110 | 121
RPMI 5 mM glucose + 10% FBS, 0.0211 µM | – | 122 | 85.9
RPMI 5 mM glucose + 10% FBS, 0.0632 µM | – | 128 | 112
RPMI 5 mM glucose + 10% FBS, 0.19 µM | – | 120 | 108
RPMI 5 mM glucose + 10% FBS, 0.569 µM | – | 128 | 126
RPMI 5 mM glucose + 10% FBS, 1.71 µM | – | 120 | 71.3
RPMI 5 mM glucose + 10% FBS, 5.12 µM | – | 135 | 103
RPMI 5 mM glucose + 10% FBS, 15.4 µM | – | 117 | 23.7
RPMI 5 mM glucose + 10% FBS, 46.1 µM | – | 90.7 | 71.7
RPMI 5 mM glucose + 10% dialyzed FBS, 0.000781 µM | – | 124 | 112
RPMI 5 mM glucose + 10% dialyzed FBS, 0.00234 µM | – | 131 | 127
RPMI 5 mM glucose + 10% dialyzed FBS, 0.00702 µM | – | 122 | 121
RPMI 5 mM glucose + 10% dialyzed FBS, 0.0211 µM | – | 124 | 94.4
RPMI 5 mM glucose + 10% dialyzed FBS, 0.0632 µM | – | 130 | 129
RPMI 5 mM glucose + 10% dialyzed FBS, 0.19 µM | – | 127 | 132
RPMI 5 mM glucose + 10% dialyzed FBS, 0.569 µM | – | 130 | 139
RPMI 5 mM glucose + 10% dialyzed FBS, 1.71 µM | – | 121 | 80.6
RPMI 5 mM glucose + 10% dialyzed FBS, 5.12 µM | – | 125 | 124
RPMI 5 mM glucose + 10% dialyzed FBS, 15.4 µM | – | 109 | 33.7
RPMI 5 mM glucose + 10% dialyzed FBS, 46.1 µM | – | 72.9 | 97.3
